{
  "source": "paper PMC3674748",
  "about": "“High-level expression and characterization of a chimeric lipase from Rhizopus oryzae for biodiesel production” (Biotechnology for Biofuels, 2013)",
  "key": {"mROL": {"target": "T1, mROL (Rhizopus arrhizus, UniProt P61872)", "T1 sequence (P61872 124-392)": "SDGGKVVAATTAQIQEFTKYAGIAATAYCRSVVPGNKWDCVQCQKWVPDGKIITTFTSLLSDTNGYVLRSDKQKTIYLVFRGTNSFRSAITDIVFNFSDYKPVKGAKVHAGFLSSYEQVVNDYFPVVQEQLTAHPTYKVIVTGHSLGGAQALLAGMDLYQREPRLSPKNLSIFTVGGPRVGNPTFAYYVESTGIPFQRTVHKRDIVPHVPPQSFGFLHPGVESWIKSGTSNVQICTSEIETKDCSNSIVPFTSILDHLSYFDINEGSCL", "assay": "residual activity after heat treatment, pNPP assay", "type": "biochemical", "conditions": "turnover only; 1 h pre-incubation at 40 °C"}, "r28ROL": {"target": "T2, r28ROL (Rhizopus arrhizus, UniProt P61872)", "T2 construct": "Pichia pastoris GS115, secreted, purified; proROL without signal peptide cleaved Kex2-like; about 37 kDa on SDS-PAGE", "T2 sequence (P61872 96-392)": "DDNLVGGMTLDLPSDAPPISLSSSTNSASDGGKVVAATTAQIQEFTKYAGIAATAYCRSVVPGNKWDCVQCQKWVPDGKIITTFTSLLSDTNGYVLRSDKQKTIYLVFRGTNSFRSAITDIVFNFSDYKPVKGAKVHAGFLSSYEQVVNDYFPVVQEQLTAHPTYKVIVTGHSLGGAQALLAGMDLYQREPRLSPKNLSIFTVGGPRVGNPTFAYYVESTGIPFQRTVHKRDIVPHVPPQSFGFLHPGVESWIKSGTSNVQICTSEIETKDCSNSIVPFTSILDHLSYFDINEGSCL", "assay": "interfacial kinetics, p-nitrophenol release from emulsified pNPP", "type": "biochemical", "conditions": "heterogeneous (emulsion) medium; free purified enzyme; value not given"}},
  "data": [
    {"compound": "CCCCCCCCCCCCCCCC(=O)Oc1ccc([N+](=O)[O-])cc1", "note": "[p-nitrophenyl palmitate]", "values": [
      {"measurement": "residual activity after heat treatment, pNPP assay", "setting": "mROL", "value": "thermostability of the mature R. oryzae lipase by P. pastoris in this study"},
      {"measurement": "Km*", "setting": "r28ROL", "value": "The kinetic parameters were determined using p-nitrophenyl palmitate (pNPP) as substrate."}
    ]}
  ]
}
